Reference: patent publication US20210378246A1, “COMPOSITIONS COMPRISING HALAUXIFEN AND OTHER HERBICIDES AND METHODS THEREOF” (DOW AGROSCIENCES LLC, priority 2018, published 2021)
“And” between values parts separate entries of the source, which are not always exact repeats. Equal entries are not always repeated.

What was measured:
Assay in all cases: Greenhouse post-emergence weed control, visual score 0-100 percent
Assay type in all cases: in vivo
[1] = test system: Chenopodium album L. (common lambsquarters, CHEAL)
Source text: (§1) Results in Examples are greenhouse trial results.
(§2) Seeds or nutlets of the desired test plant species were planted in a soil matrix prepared by mixing a loam or sandy loam soil (e.g., 28.6 percent silt, 18.8 percent clay, and 52.6 percent sand, with a pH of about 5.8 and an organic matter content of about 1.8 percent) and calcareous grit in an 80 to 20 ratio. The soil matrix was contained in plastic pots with a volume of 1 quart and a surface area of 83.6 cm2. When required to ensure good germination and healthy plants, a fungicide treatment and/or other chemical or physical treatment was applied. The plants were grown for 8-22 days in a greenhouse with an approximate 14 h photoperiod which was maintained at about 29° C. during the day and 26° C. during the night. Nutrients (Peters Excel® 15-5-15 5-Ca 2-Mg and iron chelate) were applied in the irrigation solution as needed and water was added on a regular basis. Supplemental lighting was provided with overhead metal halide 1000-Watt lamps as necessary. The plants were employed for testing when they reached the first through fourth true leaf stage.
(§3) Treatments comprised of the acid or esters of halauxifen-methyl (methyl 4-amino-3-chloro-6-(4-chloro-2-fluoro-3-methoxyphenyl)picolinate), each formulated as an SC (suspension concentrate), and various herbicidal components alone and in combination. A form of the compound of Formula I were applied on an acid equivalent basis.
(§4) Treatment requirements were calculated based upon the rates being tested, the concentration of active ingredient or acid equivalent in the formulation, and a 12 mL application volume at a rate of 187 L/ha.
(§5) For treatments comprised of formulated and technical compounds, weighed amounts of the technical materials were placed individually in 25 mL glass vials and dissolved in a volume of 97:3 v/v acetone/DMSO to obtain 12× stock solutions, and measured amounts of the formulated compounds were placed individually in 25 mL glass vials and diluted in a volume of 1.5% (v/v) crop oil concentrate or water to obtain 12× stock solutions. […] As required, additional water and/or 97:3 v/v acetone/DMSO was added to individual application solutions so that the final acetone and DMSO concentrations of the application solutions being compared were 8.1% and 0.25%, respectively.
(§6) All stock solutions and applications solutions were visually inspected for compound compatibility prior to application. Spray solutions were applied to the plant material with an overhead Mandel track sprayer equipped with an 8002E nozzle calibrated to deliver 187 L/ha over an application area of 0.503 m2 at a spray height of 18 to 20 inches (46 to 50 cm) above average plant canopy height. Control plants were sprayed in the same manner with the solvent blank.
The treated plants and control plants were placed in a greenhouse as described above and watered by sub-irrigation to prevent wash-off of the test compounds. […], the condition of the test plants as compared with that of the untreated plants was determined visually and scored on a scale of 0 to 100 percent where 0 corresponds to no injury or growth inhibition and 100 corresponds to complete kill.

[2] = test system: Abutilon theophrasti Medik. (velvetleaf, ABUTH)
Source text: as §1, §2, §3, §4, §5, §6
(§7) The treated plants and control plants were placed in a greenhouse as described above and watered by sub-irrigation to prevent wash-off of the test compounds. After approximately […], the condition of the test plants as compared with that of the untreated plants was determined visually and scored on a scale of 0 to 100 percent where 0 corresponds to no injury or growth inhibition and 100 corresponds to complete kill.

[3] = test system: Amaranthus rudis Sauer, (common waterhemp, AMATA); details: 7 DAA
Source text: as §1, §2, §3, §4, §5, §6, §7

[4] = test system: Polygonum convolvulus L. (wild buckwheat, POLCO)
Source text: as §1, §2, §3, §4, §5, §6, §7

[5] = test system: Sinapis arvensis L. (wild mustard, SINAR)
Source text: as §1, §2, §3, §4, §5, §6, §7

## CCCCCCC(C)OC(=O)COc1nc(F)c(Cl)c(N)c1Cl (stereo not drawn) [Chemical 3, 1-methytheptyl 2-[(4-amino-3,5-dichloro-6-fluoro-2-pyridinyl)oxy]acetate]
[1]; 7 DAA, alone at 8.8 gae/ha
  Chemical 3 Mean % Weed Control: 0%
[1]; 7 DAA, alone at 17.S gae/ha
  Chemical 3 Mean % Weed Control: 0%
[1]; 7 DAA, alone at 17.5 gae/ha
  Chemical 3 Mean % Weed Control: 0%
[1]; 7 DAA, alone at 35 gae/ha
  Chemical 3 Mean % Weed Control: 0%
[1]; 7 DAA, alone at 70 gae/ha
  Chemical 3 Mean % Weed Control: 10%
[1]; 14 DAA, alone at 8.8 gae/ha
  Chemical 3 Mean % Weed Control: 0%
[1]; 14 DAA, alone at 17.5 gae/ha
  Chemical 3 Mean % Weed Control: 10% and 5%
[1]; 14 DAA, alone at 35 gae/ha
  Chemical 3 Mean % Weed Control: 5% and 3.75% and 1.75%
[1]; 14 DAA, alone at 70 gae/ha
  Chemical 3 Mean % Weed Control: 31.25% and 35%
[1]; 17 DAA, alone at 8.8 gae/ha
  Chemical 3 Mean % Weed Control: 0%
[1]; 17 DAA, alone at 17.5 gae/ha
  Chemical 3 Mean % Weed Control: 8.75%
[1]; 17 DAA, alone at 35 gae/ha
  Chemical 3 Mean % Weed Control: 3.75%
[1]; 17 DAA, alone at 70 gae/ha
  Chemical 3 Mean % Weed Control: 38.75%
[2]; 7 DAA, alone at 8.8 gae/ha
  Chemical 3 Mean % Weed Control: 15%
[2]; 7 DAA, alone at 17.5 gae/ha
  Chemical 3 Mean % Weed Control: 28.75%
[2]; 7 DAA, alone at 35 gae/ha
  Chemical 3 Mean % Weed Control: 67.5%
[2]; 7 DAA, alone at 70 gae/ha
  Chemical 3 Mean % Weed Control: 75.5%
[2]; 14 DAA, alone at 8.8 gae/ha
  Chemical 3 Mean % Weed Control: 2.5%
[2]; 14 DAA, alone at 17.5 gae/ha
  Chemical 3 Mean % Weed Control: 20%
[2]; 14 DAA, alone at 35 gae/ha
  Chemical 3 Mean % Weed Control: 67%
[2]; 14 DAA, alone at 70 gae/ha
  Chemical 3 Mean % Weed Control: 70%
[3]; alone at 8.8 gae/ha
  Chemical 3 Mean % Weed Control: 0%
[3]; alone at 17.5 gae/ha
  Chemical 3 Mean % Weed Control: 3.75%
[3]; alone at 35 gae/ha
  Chemical 3 Mean % Weed Control: 3.75%
[4]; 7 DAA, alone at 8.6 gae/ha
  Chemical 3 Mean % Weed Control: 52.5%
[4]; 7 DAA, alone at 8.8 gae/ha
  Chemical 3 Mean % Weed Control: 52.5%
[4]; 7 DAA, alone at 17.5 gae/ha
  Chemical 3 Mean % Weed Control: 47.5%
[4]; 14 DAA, alone at 8.8 gae/ha
  Chemical 3 Mean % Weed Control: 12.5%
[4]; 14 DAA, alone at 17.5 gae/ha
  Chemical 3 Mean % Weed Control: 62.25%
[4]; 21 DAA, alone at 8.8 gae/ha
  Chemical 3 Mean % Weed Control: 0%
[5]; 14 DAA, alone at 35 gae/ha
  Chemical 3 Mean % Weed Control: 63.75%
[5]; 21 DAA, alone at 17.5 gae/ha
  Chemical 3 Mean % Weed Control: 54.25%

## COC(=O)c1nc(-c2ccc(Cl)c(OC)c2F)cc(N)c1Cl [Chemical 1, methyl 4-amino-3-chloro-6-(4-chloro-2-fluoro-3-methoxyphenyl)picolinate]
[1]; 7 DAA, alone at 1 gae/ha
  Chemical 1 Mean % Weed Control: 28.75%
[1]; 7 DAA, alone at 2 gae/ha
  Chemical 1 Mean % Weed Control: 56.25%
[1]; 7 DAA, alone at 4 gae/ha
  Chemical 1 Mean % Weed Control: 56.25%
[1]; 14 DAA, alone at 1 gae/ha
  Chemical 1 Mean % Weed Control: 33.33% and 40%
[1]; 14 DAA, alone at 2 gae/ha
  Chemical 1 Mean % Weed Control: 60%
[1]; 14 DAA, alone at 4 gae/ha
  Chemical 1 Mean % Weed Control: 62.5% and 63.33%
[1]; 17 DAA, alone at 1 gae/ha
  Chemical 1 Mean % Weed Control: 40%
[1]; 17 DAA, alone at 2 gae/ha
  Chemical 1 Mean % Weed Control: 53.75%
[1]; 17 DAA, alone at 4 gae/ha
  Chemical 1 Mean % Weed Control: 62.5%
[2]; 7 DAA, alone at 1 gae/ha
  Chemical 1 Mean % Weed Control: 81.25%
[2]; 7 DAA, alone at 2 gae/ha
  Chemical 1 Mean % Weed Control: 81.25%
[2]; 7 DAA, alone at 4 gae/ha
  Chemical 1 Mean % Weed Control: 84.5%
[2]; 14 DAA, alone at 2 gae/ha
  Chemical 1 Mean % Weed Control: 87.25%
[3]; alone at 2 gae/ha
  Chemical 1 Mean % Weed Control: 70.5%
[3]; alone at 4 gae/ha
  Chemical 1 Mean % Weed Control: 73%
[4]; 7 DAA, alone at 1 gae/ha
  Chemical 1 Mean % Weed Control: 2.5%
[4]; 7 DAA, alone at 2 gae/ha
  Chemical 1 Mean % Weed Control: 11.25%
[4]; 7 DAA, alone at 4 gae/ha
  Chemical 1 Mean % Weed Control: 28.75%
[4]; 14 DAA, alone at 2 gae/ha
  Chemical 1 Mean % Weed Control: 0%
[4]; 14 DAA, alone at 4 gae/ha
  Chemical 1 Mean % Weed Control: 20%
[4]; 21 DAA, alone at 1 gae/ha
  Chemical 1 Mean % Weed Control: 0%
[4]; 21 DAA, alone at 2 gae/ha
  Chemical 1 Mean % Weed Control: 6.25%
[4]; 21 DAA, alone at 4 gae/ha
  Chemical 1 Mean % Weed Control: 17.5%
[5]; 14 DAA, alone at 4 gae/ha
  Chemical 1 Mean % Weed Control: 0%
[5]; 21 DAA, alone at 1 gae/ha
  Chemical 1 Mean % Weed Control: 1.25%
